Residues, ends and D or L forms follow the SMILES beside them.
Experiments:
GPIIb-IIIa on platelets = target: T1, GPIIb-IIIa on platelets (Homo sapiens, UniProt P05106+P08514); experiment: 125I-anti-LIBS1 binding to washed platelets with peptide ligands; conditions: peptide 0.8 mM; stimulated and unstimulated platelets
T1 construct: endogenous in cells; host or cells: platelets
Description: FIG. 2 illustrates anti-LIBS1 binding to platelets expressing a cryptic antigenic determinant as described in Example 5. Varied concentrations of ^125 I-anti-LIBS1 were bound at 37 C. for 30 minutes to gel-filtered platelets in the presence of no peptide (inverted triangle), 0.8 mM GRGESP (squares), 0.8 mM GRGDSP (triangles) or GRGDSP and 10 uM ADP (circles). Bound radioactivity was separated from free by spinning the platelets through a layer of sucrose.
Washed platelets were isolated as described in Example 1A, and were resuspended in 2 ml of calcium-free Tyrode's buffer (0.13 M NaCl, 0.0026 M KCl 0.002M MgCl2. 6H2 O, 5 mM Hepes, 0.012 M NaHCO3, pH 7.2) which was first treated by admixture with Chelex 100 (200-400 mesh sodium form, Bio-Rad Laboratories, Richmond, Calif.), maintained to complex any divalent cations present in the Tyrode's buffer and filtered to remove the complexed divalent cations from the buffer. The platelet suspension was then applied to a Sepharose CL2B column (40 ml total bed volume, Pharmacia, Inc., Piscataway, N.J.) equilibrated with the same Tyrode's buffer. […] The label containing immunoreaction products were then separated from non-bound ^125 I-labeled antibody by centrifugation of the platelet aliquot through a sucrose cushion as described in Example 4, and the platelet-associated radioactivity was determined as before.

[1] = target: T2, solubilized αIIb β3 from platelets (Homo sapiens, UniProt P05106+P08514); experiment: Solution phase assay: 125I-Fg binding to solubilized αIIb β3; type: biochemical
T2 construct: αIIb β3 was solubilized from platelets; endogenous in cells; host or cells: human platelets, octylglucoside lysate
Description: To determine if activating antibodies could activate αIIb β3 extracted away f rom the membrane milieu, the activating capacity to stimulate Fg binding in a solution phase was assayed. In this assay, αIIb β3 was solubilized from platelets, incubated in the presence or absence of activating monoclonal antibodies, and then bound to microtiter plates coated with a non-activating monoclonal anti β3 antibody.
The platelet pellet was resuspended and solubilized in ice cold 10 mM Hepes containing 150 mM NaCl, 50 mM octyl-B-D-glucoypyranoside (Calbiochem, La Jolla, Calif.) 1 mm PMSF, 50 ng/ml PGE, 1 mM CaCl2, 1 mM MgCl2, 50 uM leupeptin and 1 mg/ml N-ethylmaleimide (Sigma, St. Louis, Mo.) and centrifuged at 100,000 g for 30 minutes. […] The microtiter wells were incubated at 4 C. overnight, washed twice with a modified Tyrodes-Hepes buffer (2.5 mM Hepes, 150 mM NaCl, 2.5 mM KCl, 1 mM MgCl2, 12 mM NaHCO3, 5.5 mM D-glucose and 1 mg/ml BSA, pH 7.4) containing 50 MM octyl-B-D-glucopyranoside and 0.1 uM activating monoclonal antibody and then twice in Tyrodes-Hepes buffer only to form αIIb β3 -bound microtiter wells. […] Bound radioactivity was counted after 2 washes with Tyrodes-Hepes buffer.

αIIb β3 on A5 cells [2] = target: T3, αIIb β3 on A5 cells (Homo sapiens, UniProt P05106+P08514); experiment: Binding of fibrinogen-coated fluorescent beads to A5 cells; type: cell-based; conditions: 2 mM peptide
T3 construct: expressed in transfected cells
Description: Immobilized Fg was prepared by coating […] fluorescent latex beads (Fluoricon Fluorescent Particles, Baxter, McGraw Park, Ill.). These beads were prepared by incubating 1 mg of purified Fg with 650 ul of Fluoricon beads for 1 hour at room temperature. The beads were pelleted, resuspended in 1 ml of 30 mM Tris pH 7.4, 170 mM NaCl and 1% BSA, and stored at 4 degrees until ready for use. The binding of these particles to transfected cells was assessed by incubating 5×10^5 cells with 25 ul of beads in the presence or absence of polypeptide inhibitors for 30 minutes at room temperature. The solution was layered over a 6% BSA cushion, spun 5 minutes in a microfuge and the pelleted cells resuspended in 500 ul of Tyrodes and subjected to FACS analysis as described in Example 7.

αIIb β3 on A5 cells [3] = target: T3, αIIb β3 on A5 cells; experiment: Soluble 125I-fibrinogen binding to A5 cells; type: cell-based
Description: FIG. 4 illustrates the equilibrium binding of soluble fibrinogen (Fg) to Ab-62 stimulated (activated) A5 cells when measured as in Example 10. A5 cells at a concentration of 10^6 per ml were admixed with 6 uM of Sepharose-purified AB-62 and maintained at 22 C. for 30 minutes to activate the integrin. Iodinated Fg was then admixed in varying concentrations from 0.01 to 1 nM. After a 60 minute maintenance period, the bound ligand was separated from free ligand by centrifugation through 0.3 ml of 20% sucrose. The amount of radiolabelled ligand associated with the cell pellet was determined by gamma detection. Saturable binding was measured in three different experiments and plotted versus the input Fg concentration to obtain an averaged profile. A Scatchard replot of the binding data was made and is shown in the insert.
An independent measure of integrin activation was made by detecting the ability of a cell containing the integrin to bind soluble fibrinogen (Fg) that had been labelled with ^125 I. Fg was isolated and labelled with ^125 I by standard methods as described by Marguerie et al., J. Biol. Chem., 255:154-161 (1980) to form ^125 I-Fg. Thereafter, the binding of ^125 I-Fg to transfected cells was assayed as described previously for platelets [Marguerie et al., J. Biol. Chem., 255:154-161 (1980)]. Binding was initiated by the addition of cells to radiolabelled Fg and incubation at 37 degrees for 30 minutes. Bound ligand was separated from free ligand by centrifugation through 0.3 ml of 20% sucrose and the amount of radiolabelled ligand associated with the cell pellet determined by gamma detection.
Background binding in this assay detected about 30,000 molecules of Fg bound per integrin bearing cell, whereas maximum Ab-62 stimulated A5 cells bound about 95,000 molecules of Fg per cell.
Equilibrium binding of soluble Fg to Ab-62 stimulated (activated) A5 cells was carried out to better characterize Fg binding. […] A5 cells (10^6 per ml) were incubated with 6 uM Sepharose-purified Ab-62 for 30 minutes at 22 C. to activate the integrin. Thereafter ^125 I-Fg was admixed in varying concentrations from 0.01 to 1 nM. After 60 minutes, bound Fg was measured as described above after centrifugation of the cells through sucrose.
Saturable binding was measured in three different experiments and plotted versus the input Fg concentration to obtain average data which is shown in FIG. 4. A Scatchard replot of the binding data was also made and is shown in the inset to FIG. 4. The binding of the various concentrations of Fg to activated A5 cells at steady state was analyzed by use of the "Ligand" computer program. […] There was day to day variation in the quantity of αIIb β3 expressed as measured by the binding of the 2G12 antibody (150,000 to 440,000 sites/cell) as well as in the number of Fg receptors (138,000 to 360,000 sites/cell). The ratio of Fg receptors to αIIb β3 expressed per cell on a given day was 0.83±0.05, thus virtually all of the recombinant αIIb β3 was functional with respect to Fg binding.

αIIb β3 and αv β3 = experiment: Peptide ligand recognition by recombinant β3 integrins; type: binding, human

T3 sequence (P08514 32-887 limits assumed): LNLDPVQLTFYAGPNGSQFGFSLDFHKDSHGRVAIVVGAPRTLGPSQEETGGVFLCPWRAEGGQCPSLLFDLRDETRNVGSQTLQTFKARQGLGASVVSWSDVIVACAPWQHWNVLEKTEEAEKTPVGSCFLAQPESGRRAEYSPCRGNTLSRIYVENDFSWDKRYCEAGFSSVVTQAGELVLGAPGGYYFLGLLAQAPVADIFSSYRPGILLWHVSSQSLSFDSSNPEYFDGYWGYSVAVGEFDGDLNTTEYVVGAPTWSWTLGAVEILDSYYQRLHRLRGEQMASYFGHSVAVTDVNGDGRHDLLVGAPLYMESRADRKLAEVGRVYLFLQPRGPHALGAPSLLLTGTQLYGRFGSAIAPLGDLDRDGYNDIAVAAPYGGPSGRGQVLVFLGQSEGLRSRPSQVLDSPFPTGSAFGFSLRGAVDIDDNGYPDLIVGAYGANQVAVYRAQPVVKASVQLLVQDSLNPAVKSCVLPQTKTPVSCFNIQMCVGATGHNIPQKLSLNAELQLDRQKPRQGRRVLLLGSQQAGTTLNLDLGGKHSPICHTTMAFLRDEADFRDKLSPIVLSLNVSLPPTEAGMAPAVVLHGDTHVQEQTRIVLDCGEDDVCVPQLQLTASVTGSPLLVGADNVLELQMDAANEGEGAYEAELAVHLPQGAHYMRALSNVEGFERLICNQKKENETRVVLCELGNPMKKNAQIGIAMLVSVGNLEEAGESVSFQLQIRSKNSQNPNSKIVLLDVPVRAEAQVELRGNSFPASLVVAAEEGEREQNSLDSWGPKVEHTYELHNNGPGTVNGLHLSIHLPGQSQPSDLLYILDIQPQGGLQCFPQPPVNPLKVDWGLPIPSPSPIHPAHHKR
T3 sequence (P08514 891-1039 partner limits assumed): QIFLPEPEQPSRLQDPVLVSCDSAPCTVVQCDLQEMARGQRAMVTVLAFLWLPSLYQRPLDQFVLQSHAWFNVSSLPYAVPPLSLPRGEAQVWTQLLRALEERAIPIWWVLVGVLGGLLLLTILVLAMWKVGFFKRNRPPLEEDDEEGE
T3 sequence (P05106 27-788): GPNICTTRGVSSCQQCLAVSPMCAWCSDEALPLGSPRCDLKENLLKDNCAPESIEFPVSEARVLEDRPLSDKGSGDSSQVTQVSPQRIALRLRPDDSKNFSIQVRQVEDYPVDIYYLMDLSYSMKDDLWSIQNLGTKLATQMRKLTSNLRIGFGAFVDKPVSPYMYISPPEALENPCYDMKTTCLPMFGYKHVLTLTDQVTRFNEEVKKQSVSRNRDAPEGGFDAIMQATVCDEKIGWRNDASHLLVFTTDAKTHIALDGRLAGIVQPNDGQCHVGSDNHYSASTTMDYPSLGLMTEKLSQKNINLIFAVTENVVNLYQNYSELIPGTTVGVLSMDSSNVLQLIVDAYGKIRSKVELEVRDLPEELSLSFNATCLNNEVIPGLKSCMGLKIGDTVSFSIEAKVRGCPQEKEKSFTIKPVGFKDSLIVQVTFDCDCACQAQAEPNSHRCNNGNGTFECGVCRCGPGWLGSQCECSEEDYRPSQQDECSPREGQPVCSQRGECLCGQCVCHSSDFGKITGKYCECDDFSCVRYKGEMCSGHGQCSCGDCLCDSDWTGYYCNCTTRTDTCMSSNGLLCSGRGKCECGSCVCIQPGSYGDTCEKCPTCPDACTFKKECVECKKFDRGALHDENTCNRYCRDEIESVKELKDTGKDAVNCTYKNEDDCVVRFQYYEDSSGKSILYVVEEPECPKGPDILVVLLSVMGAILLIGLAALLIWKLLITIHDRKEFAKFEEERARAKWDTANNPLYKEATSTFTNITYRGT
T2 sequence (P08514 32-887 limits assumed): as the sequence (P08514 32-887 limits assumed) above
T2 sequence (P08514 891-1039 partner limits assumed): as the sequence (P08514 891-1039 partner limits assumed) above
T2 sequence (P05106 27-788): as the sequence (P05106 27-788) above
T1 sequence (P08514 32-887 limits assumed): as the sequence (P08514 32-887 limits assumed) above
T1 sequence (P08514 891-1039 partner limits assumed): as the sequence (P08514 891-1039 partner limits assumed) above
T1 sequence (P05106 27-788): as the sequence (P05106 27-788) above

Row | SMILES | induction of LIBS1 cryptic antigenic determinant on platelets by peptide ligand (GPIIb-IIIa on platelets) | inhibition of Fg binding to stimulated captured receptor [1] | adherence of A5 cells to Fg-coated microspheres (αIIb β3 on A5 cells [2]) | inhibition of soluble 125I-Fg binding to activated A5 cells (αIIb β3 on A5 cells [3]) | recognition of peptide by αIIb β3 versus αv β3 (αIIb β3 and αv β3)
1 | N=C(N)NCCC[C@H](NC(=O)CN)C(=O)NCC(=O)N[C@@H](CC(=O)O)C(=O)N[C@@H](CO)C(=O)N1CCC[C@H]1C(=O)O [GRGDSP, Gly-Arg-Gly-Asp-Ser-Pro] | will express a LIBS1 cryptic antigenic determinant | inhibition | inhibited | inhibited | 
2 | CC(C)C[C@H](N)C(=O)NCC(=O)NCC(=O)N[C@@H](C)C(=O)N[C@@H](CCCCN)C(=O)N[C@@H](CCC(N)=O)C(=O)N[C@@H](C)C(=O)NCC(=O)N[C@@H](CC(=O)O)C(=O)N[C@H](C(=O)O)C(C)C [Mab L10, LGGAKQAGDV] (H-LGGAKQAGDV-OH) |  |  |  |  | recognized better by αIIb β3 than by αv β3

— patent US5306620A, “Antibodies that bind to a ligand-induced binding site on integrin and induce integrin activation” (The Scripps Research Institute, priority 1990, dated 1994)
